Values quoted from earlier work in patent US8591947B2, “Dual controlled release dosage form” (Osmotica Kereskedelmi és Szolgáltató KFT, priority 2001, dated 2013).
Where a name gives a salt, the structure may show the parent alone.

| SMILES | Solubility of component in water (U.S.P. term) |
| --- | --- |
| CNC(=C[N+](=O)[O-])NCCSCc1ccc(CN(C)C)o1 [ranitidine HCl] | very soluble |
| C[C@H]1c2cccc(O)c2C(=O)C2=C(O)[C@]3(O)C(=O)C(C(N)=O)=C(O)[C@@H](N(C)C)[C@@H]3[C@@H](O)[C@@H]21 [doxycycline hydrate] | soluble |
| CCOC(=O)[C@H](CCc1ccccc1)N[C@H]1CCc2ccccc2N(CC(=O)O)C1=O [benazepril] | soluble |
| Clc1cccc(Cl)c1N=C1NCCN1 [clonidine HCl] | soluble |
| CCc1ccc(CCOc2ccc(CC3SC(=O)NC3=O)cc2)nc1 (stereo not drawn) [pioglitazone HCl] | practically insoluble |
| O=C1N=C([O-])NC1(c1ccccc1)c1ccccc1.[Na+] [phenyloin sodium] | soluble |
| CC12CC3CC(C)(C1)CC(N)(C3)C2 [memantine HCl] | slightly soluble |
| Cc1ncc([N+](=O)[O-])n1CCO [metronidazole] | sparingly soluble |
| OCCOCCN1CCN(C(c2ccccc2)c2ccc(Cl)cc2)CC1 (stereo not drawn) [hydroxyzine] | very soluble |
| CN/C(=N/CCSCc1nc[nH]c1C)NC#N [cimetidine] | sparingly soluble |
| CCC(=O)O[C@]1(C(=O)SCF)[C@H](C)C[C@H]2[C@@H]3C[C@H](F)C4=CC(=O)C=C[C@]4(C)[C@@]3(F)[C@@H](O)C[C@@]21C [fluticasone propionate] | practically insoluble |
| COc1ccc2c3c1O[C@H]1C(=O)CC[C@@]4(O)[C@@H](C2)N(C)CC[C@]314 [oxycodone] | soluble |
| CC(=O)Nc1ccc(O)cc1 [acetaminophen] | very slightly soluble |
| CC[C@H]1OC(=O)[C@H](C)[C@@H](O[C@H]2C[C@@](C)(OC)[C@@H](O)[C@H](C)O2)[C@H](C)[C@@H](O[C@@H]2O[C@H](C)C[C@H](N(C)C)[C@H]2O)[C@](C)(O)C[C@@H](C)CN(C)[C@H](C)[C@@H](O)[C@]1(C)O [azithromycin dihydrate] | practically insoluble |
| NCC1(CC(=O)O)CCCCC1 [gabapentin] | freely soluble |
| CCOC(=O)C1=C(C)NC(C)=C(C(=O)OC)C1c1cccc(Cl)c1Cl (stereo not drawn) [felodipine] | practically insoluble |
| COC(=O)C1=C(C)NC(C)=C(C(=O)OCC(C)C)C1c1ccccc1[N+](=O)[O-] (stereo not drawn) [nisoldipine] | practically insoluble |
| OCc1cc(C(O)CNCCCCCCOCCCCc2ccccc2)ccc1O (stereo not drawn) [salmeterol] | sparingly soluble |
| Cc1ccc(-c2cc(C(F)(F)F)nn2-c2ccc(S(N)(=O)=O)cc2)cc1 [celecoxib] | practically insoluble |
| COc1ccc2[nH]c([S+]([O-])Cc3ncc(C)c(OC)c3C)nc2c1 (stereo not drawn) [omeprazole] | very slightly soluble |
| Cc1nc2n(c(=O)c1CCN1CCC(c3noc4cc(F)ccc34)CC1)CCCC2 [risperidone] | practically insoluble |
| COCCc1ccc(OCC(O)CNC(C)C)cc1 (stereo not drawn) [metoprolol tartrate] | very soluble |
| CCN(C)C(=O)Oc1cccc([C@H](C)N(C)C)c1 [rivastigmine hydrogen tartrate] | very soluble |

| SMILES | Solubility of component in water (U.S.P. term) |
| --- | --- |
| COc1cc(N)c(Cl)cc1C(=O)NC1CCN(CCCOc2ccc(F)cc2)CC1OC (stereo not drawn) [cisapride monohydrate] | practically insoluble |
| Cc1cc2c(s1)Nc1ccccc1N=C2N1CCN(C)CC1 [olanzapine] | practically insoluble |
| Cc1cccc(CN2CCN(C(c3ccccc3)c3ccc(Cl)cc3)CC2)c1 (stereo not drawn) [meclizine HCl] | soluble |
| CC(CN1c2ccccc2Sc2ccccc21)N(C)C (stereo not drawn) [promethazine HCl] | soluble |
| CCOC(=O)[C@H](CCc1ccccc1)N[C@@H](C)C(=O)N1CCC[C@H]1C(=O)O [enalapril maleate] | sparingly soluble |
| CC(C)Cc1ccc(C(C)C(=O)O)cc1 (stereo not drawn) [ibuprofen] | very slightly soluble |
| CN(C)CCC=C1c2ccccc2CCc2ccccc21 [amitriptyline] | freely soluble |
| Oc1ncnc2[nH]ncc12 [allopurinol] | very slightly soluble |
| CS(=O)(=O)c1ccc(C2=C(c3ccccc3)C(=O)OC2)cc1 [rofecoxib] | practically insoluble |
| CCCCc1nc(Cl)c(CO)n1Cc1ccc(-c2ccccc2-c2nn[nH]n2)cc1 [losartan potassium] | freely soluble |
| CC(NC(C)(C)C)C(=O)c1cccc(Cl)c1 (stereo not drawn) [bupropion HCl] | soluble |
| CC(C)(C)NCC(O)c1ccc(O)c(CO)c1 (stereo not drawn) [albuterol] | sparingly soluble |
| COc1cccc(C2(O)CCCCC2CN(C)C)c1 (stereo not drawn) [tramadol HCl] | freely soluble |
| C[C@]12C=CC(=O)C=C1CC[C@@H]1[C@@H]2C(=O)C[C@@]2(C)[C@H]1CC[C@]2(O)C(=O)CO [prednisone] | very slightly soluble |
| O=[N+]([O-])O[C@@H]1CO[C@H]2[C@@H]1OC[C@@H]2O [isosorbide mononitrate] | freely soluble |
| Cc1c(OCC(F)(F)F)ccnc1C[S+]([O-])c1nc2ccccc2[nH]1 (stereo not drawn) [lansoprazole] | practically insoluble |
| NC(=O)N1c2ccccc2C=Cc2ccccc21 [carbamazepine] | practically insoluble |
| CN(C)CCCC1(c2ccc(F)cc2)OCc2cc(C#N)ccc21 (stereo not drawn) [citalopram] | sparingly soluble |
| CN(CCOc1ccc(CC2SC(=O)NC2=O)cc1)c1ccccn1 (stereo not drawn) [rosiglitazone maleate] | soluble |
| CC(C)NCC(O)COc1cccc2[nH]ccc12 (stereo not drawn) [pindolol] | practically insoluble |
| CCC(=O)O[C@@H](O[P@](=O)(CCCCc1ccccc1)CC(=O)N1C[C@H](C2CCCCC2)C[C@H]1C(=O)O)C(C)C [fosinopril sodium] | soluble |
| CNS(=O)(=O)Cc1ccc2[nH]cc(CCN(C)C)c2c1 [sumatriptan] | soluble |
| CCOC(=O)[C@H](CCc1ccccc1)N[C@@H](C)C(=O)N1Cc2ccccc2C[C@H]1C(=O)O [quinapril] | freely soluble |

| SMILES | Solubility of component in water (U.S.P. term) |
| --- | --- |
| CC[C@H](C)C(=O)O[C@H]1C[C@H](O)C=C2C=C[C@H](C)[C@H](CC[C@@H](O)C[C@@H](O)CC(=O)O)[C@H]21 [pravastatin sodium] | soluble |
| CC(=O)Oc1ccccc1C(=O)O [aspirin] | slightly soluble |
| COC(=O)[C@H](c1ccccc1Cl)N1CCc2sccc2C1 [clopidogrel bisulfate] | practically insoluble |
| C[C@H](CS)C(=O)N1CCC[C@H]1C(=O)O [captopril] | freely soluble |
| CN(C)CCC=C1c2ccccc2C=Cc2ccccc21 [cyclobenzaprine HCl] | freely soluble |
| Cl.O=C(c1ccc(OCCN2CCCCC2)cc1)c1c(-c2ccc(O)cc2)sc2cc(O)ccc12 [ralozifene HCL] | very slightly soluble |
| CC[C@@H](C(N)=O)N1CCCC1=O [levetiracetam] | very soluble |
| NCCCC[C@H](N[C@@H](CCc1ccccc1)C(=O)O)C(=O)N1CCC[C@H]1C(=O)O [lisinopril] | soluble |
| CCCc1nn(C)c2c(=O)[nH]c(-c3cc(S(=O)(=O)N4CCN(C)CC4)ccc3OCC)nc12 [sildenafil citrate] | slightly soluble |
| COc1ccc2c3c1O[C@H]1C(=O)CC[C@H]4[C@@H](C2)N(C)CC[C@]314.O=C(O)C(O)C(O)C(=O)O [hydrocodone bitartrate] | soluble |
| O=c1n(CCCN2CCN(c3cccc(Cl)c3)CC2)nc2ccccn12 [trazodone HCl] | sparingly soluble |
| Nc1nc2c(ncn2COCCO)c(=O)[nH]1 [acyclovir] | slightly soluble |
| O=C1CC2(CCCC2)CC(=O)N1CCCCN1CCN(c2ncccn2)CC1 [buspirone HCl] | freely soluble |
| CC(C)NCC(O)COc1cccc2ccccc12 (stereo not drawn) [propranolol HCl] | soluble |
| CCOC(=O)C1=C(COCCN)NC(C)=C(C(=O)OC)C1c1ccccc1Cl (stereo not drawn) [amlodipine besylate] | slightly soluble |
| COc1cc2nc(N3CCN(C(=O)C4COc5ccccc5O4)CC3)nc(N)c2cc1OC (stereo not drawn) [doxazosin mesylate] | slightly soluble |
| COc1ccc(Cl)cc1C(=O)NCCc1ccc(S(=O)(=O)NC(=O)NC2CCCCC2)cc1 [glyburide] | practically insoluble |
| COc1ccccc1OCCNCC(O)COc1cccc2[nH]c3ccccc3c12 (stereo not drawn) [carvedilol] | practically insoluble |
| COc1ccc2c3c1O[C@H]1C[C@@H](O)C=C[C@@]31CCN(C)C2 [galantamine HBr] | sparingly soluble |
| C[C@@H]1C[C@H]2[C@@H]3CCC4=CC(=O)C=C[C@]4(C)[C@@]3(Cl)[C@@H](O)C[C@]2(C)[C@@]1(OC(=O)c1ccco1)C(=O)CCl [mometasone furoate] | practically insoluble |
| COc1ccc([C@@H]2Sc3ccccc3N(CCN(C)C)C(=O)[C@@H]2OC(C)=O)cc1 [diltiazem HCl] | freely soluble |
| CCC(=O)O[C@](Cc1ccccc1)(c1ccccc1)[C@H](C)CN(C)C.Cl [propoxiphene HCl] | freely soluble |
| COCCCOc1ccnc(C[S+]([O-])c2nc3ccccc3[nH]2)c1C (stereo not drawn) [rabeprazole sodium] | very soluble |
